Experiment: xn = mol fraction of the nth substance listed
Details: Liquid, Vibrating tube method

CN(CCO)CCO [N-methyldiethanolamine] + O
mass density [kg/m3]
Details	x1 = 0.0609	x1 = 0.0916	x1 = 0.1313	x1 = 0.1848	x1 = 0.2608	x1 = 0.3768	x1 = 0.5764	x1 = 1
298.15 K, 100 kPa	1025.2	1035.6	1043.3	1049.7	1053.6	1052.3	1046	1036
303.15 K, 100 kPa	1022.8	1032.8	1040.9	1046.1	1049.9	1048.6	1042.3	1032.4
308.15 K, 100 kPa	1020.3	1029.9	1037.6	1042.5	1046.2	1044.8	1038.4	1028.6
313.15 K, 100 kPa	1017.7	1026.9	1034.3	1038.8	1042.4	1040.9	1034.6	1024.8
318.15 K, 100 kPa	1014.9	1023.8	1030.8	1034.7	1038.5	1037	1030.8	1021
323.15 K, 100 kPa	1012	1020.6	1027.3	1031.1	1034.6	1033.1	1026.9	1017.2
328.15 K, 100 kPa	1009	1017.2	1023.7	1027.3	1030.6	1029.1	1022.9	1013.3
333.15 K, 100 kPa	1005.9	1013.8	1020.1	1023.6	1026.6	1025	1019	1009.4
338.15 K, 100 kPa	1002.7	1010.3	1016.3	1019.8	1022.5	1020.9	1015	1005.6
343.15 K, 100 kPa	999.3	1006.7	1012.5	1015.9	1018.4	1016.8	1010.9	1001.7
348.15 K, 100 kPa	995.9	1003	1008.5	1011.9	1014.2	1012.6	1006.9	997.7
353.15 K, 100 kPa	992.3	999.2	1004.6	1007.7	1009.9	1008.4	1002.7	993.8
358.15 K, 100 kPa	988.7	995.3	1000.4	1003.5	1005.2	1004.1	998.6	989.9
363.15 K, 100 kPa	984.9	991.3	996.3	999.2	1000.9	999.8	994.4	985.9
373.15 K, 700 kPa	977.2	982.9	987.6	990.7	992	990.6	985.7	978.6
383.15 K, 700 kPa	968.8	974.1	978.5	981.4	982.6	981.4	976.9	970.3
393.15 K, 700 kPa	960.2	965.2	969.3	972.1	973.3	972.2	968.1	962.1
403.15 K, 700 kPa	951.2	955.9	959.8	962.5	963.7	962.9	959.3	953.9
413.15 K, 700 kPa	941.9	946.4	950.1	952.7	954	953.4	950.4	945.6
423.15 K, 700 kPa	931.9	936.1	939.6	942.3	943.6	943.4	940.9	937

OCCNCCO [diethanolamine] + O
mass density [kg/m3]
Details	x1 = 0.0684	x1 = 0.1025	x1 = 0.1463	x1 = 0.2045	x1 = 0.2856	x1 = 0.4067	x1 = 0.6066	x1 = 1
298.15 K, 100 kPa	1034	1047.2	1059.5	1071.4	1081	1088	1092.2	1093.6
303.15 K, 100 kPa	1031.8	1044.8	1056.9	1068.5	1077.9	1085	1088.9	1090.4
308.15 K, 100 kPa	1029.7	1042.4	1054.2	1065.6	1074.9	1081.8	1085.8	1087.1
313.15 K, 100 kPa	1027.2	1039.6	1051.3	1062.6	1071.7	1078.7	1082.7	1083.8
318.15 K, 100 kPa	1024.9	1037	1048.4	1059.5	1068.6	1075.5	1079.5	1080.6
323.15 K, 100 kPa	1022.2	1034.2	1045.4	1056.6	1065.3	1072.2	1076.2	1077.4
328.15 K, 100 kPa	1019.5	1031.4	1042.4	1053.2	1062.1	1068.9	1073	1074.1
333.15 K, 100 kPa	1016.6	1028.3	1039.2	1049.9	1058.8	1065.6	1069.6	1070.8
338.15 K, 100 kPa	1013.8	1025.2	1036	1046.5	1055.3	1062.2	1066.3	1067.4
343.15 K, 100 kPa	1010.6	1022	1032.6	1043.1	1051.8	1058.8	1062.9	1064
348.15 K, 100 kPa	1007.5	1018.8	1029.3	1039.7	1048.3	1055.3	1059.4	1060.6
353.15 K, 100 kPa	1004.2	1015.3	1025.8	1036	1044.8	1051.7	1055.9	1057.2
358.15 K, 100 kPa	1000.8	1011.9	1022.3	1032.5	1041.1	1048	1052.4	1053.7
363.15 K, 100 kPa	997.3	1008.3	1018.6	1028.7	1037.2	1044.4	1048.8	1050.1
373.15 K, 700 kPa	990.2	1000.9	1011.5	1021.2	1029.9	1037.2	1041.8	1043.3
383.15 K, 700 kPa	982.3	992.9	1003.3	1012.9	1021.7	1028.9	1033.8	1035.5
393.15 K, 700 kPa	974.2	984.7	995.1	1004.7	1013.5	1020.9	1026	1028.1
403.15 K, 700 kPa	965.8	976.3	986.7	996.2	1005.1	1012.8	1018.2	1020.5
413.15 K, 700 kPa	957.1	967.5	977.9	987.5	996.5	1004.5	1010.2	1012.9
423.15 K, 700 kPa	947.9	958.1	969	978.2	987.2	995.4	1001.7	1004.8
